Read-outs that look alike come from different tables or passages of the source.
Tested on: HBV rcDNA in HepDE19 cells
Test: HepDE19 assay with bDNA quantitation of HBV rcDNA
Type: cell-based, hepatitis B virus (HBV)
Procedure, shortened: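 HepDE19 cells (HepG2-derived, Tet-regulated HBV) switched to Tet-free medium, then treated 7 days at 37 °C with compound, 8-point titration from 25 μM, 0.5% DMSO. rcDNA quantified by bDNA with HBV probes; EC50/EC90 via 4-parameter fit. Viability (CC50) by CellTiter-Glo ATP on 5,000 cells/well after 4 days.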

[1] = Hepatitis B virus, HepDE19, 168 h, inhibition of rcDNA formation in HepDE19 cells (HepG2 derived), Tet-free medium, 7 day incubation, Quantigene 2.0 bDNA readout, top concentration 25 μM, read-out: DE-19bDNA EC50
[2] = inhibition of rcDNA formation in HepDE19 cells (HepG2 derived), Tet-free medium, 7 day incubation, Quantigene 2.0 bDNA readout, top concentration 25 μM, read-out: DE-19bDNA EC50

Row | SMILES | EC50 [2] [µM] | other results
1 | CN(C(=O)Nc1ccc(F)c(C(F)F)c1)C1COCc2[nH]c(=O)c3cc(F)ccc3c21 (single isomer, unassigned) [Compound 123, 3-(3-(Difluoromethyl)-4-fluorophenyl)-1-(8-fluoro-6-oxo-1,4,5,6-tetrahydro-2H-pyrano[3,4-c]isoquinolin-1-yl)-1-methylurea] |  | EC50 [1]: 0.56 µM
2 | CN(C(=O)Nc1ccc(F)c(C(F)F)c1)[C@H]1COCc2[nH]c(=O)c3cc(F)c(F)cc3c21 (single isomer, unassigned) [Compound 125] |  | EC50 [1]: 0.49 µM
3 | CN(C(=O)Nc1ccc(F)c(C(F)F)c1)[C@@H]1COCc2[nH]c(=O)c3cc(F)c(F)cc3c21 (single isomer, unassigned) [Compound 126] |  | EC50 [1]: 0.01 µM
4 | Cc1cc(NC(=O)N(CC(C)C)C2COCc3[nH]c(=O)c4cc(F)ccc4c32)ccc1F (single isomer, unassigned) [Compound 131, 3-(4-Fluoro-3-methylphenyl)-1-(8-fluoro-6-oxo-1,4,5,6-tetrahydro-2H-pyrano[3,4-c]isoquinolin-1-yl)-1-isobutylurea] | 0.01 | 
5 | Cc1cc(NC(=O)N(CC(C)C)C2COCc3[nH]c(=O)c4cc(F)ccc4c32)ccc1F (single isomer, unassigned) [Compound 132, 3-(4-Fluoro-3-methylphenyl)-1-(8-fluoro-6-oxo-1,4,5,6-tetrahydro-2H-pyrano[3,4-c]isoquinolin-1-yl)-1-isobutylurea] | 0.15 | 
6 | CN(C(=O)Nc1cc(F)c(F)c(F)c1)C1COCc2[nH]c(=O)c3cc(F)c(F)cc3c21 (single isomer, unassigned) [Compound 133, 1-(8,9-Difluoro-6-oxo-1,4,5,6-tetrahydro-2H-pyrano[3,4-c]isoquinolin-1-yl)-1-methyl-3-(3,4,5-trifluorophenyl)urea] | 0.02 | 
7 | CN(C(=O)Nc1cc(F)c(F)c(F)c1)C1COCc2[nH]c(=O)c3cc(F)c(F)cc3c21 (single isomer, unassigned) [Compound 134, 1-(8,9-Difluoro-6-oxo-1,4,5,6-tetrahydro-2H-pyrano[3,4-c]isoquinolin-1-yl)-1-methyl-3-(3,4,5-trifluorophenyl)urea] | 0.99 | 
8 | N#Cc1cc(NC(=O)N[C@@H]2COCc3[nH]c(=O)c4cc(F)c(F)cc4c32)ccc1F (single isomer, unassigned) [Compound 135] |  | EC50 [1]: 0.05 µM
9 | NS(=O)(=O)CCN(C(=O)Nc1ccc(F)c(Cl)c1)C1COCc2[nH]c(=O)c3cc(F)c(F)cc3c21 (single isomer, unassigned) [Compound 136, 2-(3-(3-Chloro-4-fluorophenyl)-1-(8,9-difluoro-6-oxo-1,4,5,6-tetrahydro-2H-pyrano[3,4-c]isoquinolin-1-yl)ureido)ethane-1-sulfonamide] | 2.9 | 
10 | NS(=O)(=O)CCN(C(=O)Nc1ccc(F)c(Cl)c1)C1COCc2[nH]c(=O)c3cc(F)c(F)cc3c21 (single isomer, unassigned) [Compound 137, 2-(3-(3-Chloro-4-fluorophenyl)-1-(8,9-difluoro-6-oxo-1,4,5,6-tetrahydro-2H-pyrano[3,4-c]isoquinolin-1-yl)ureido)ethane-1-sulfonamide] | 0.01 | 
11 | CCN(C(=O)Nc1ccc(F)c(C#N)c1)[C@@H]1COCc2[nH]c(=O)c3cc(F)c(F)cc3c21 (single isomer, unassigned) [Compound 138] |  | EC50 [1]: 0.01 µM
12 | CS(=O)(=O)CCN(C(=O)Nc1ccc(F)c(Cl)c1)C1COCc2[nH]c(=O)c3cc(F)c(F)cc3c21 (single isomer, unassigned) [Compound 139, 3-(3-Chloro-4-fluorophenyl)-1-(8,9-difluoro-6-oxo-1,4,5,6-tetrahydro-2H-pyrano[3,4-c]isoquinolin-1-yl)-1-(2-(methylsulfonyl)ethyl)urea] | 0.6 | 
13 | CS(=O)(=O)CCN(C(=O)Nc1ccc(F)c(Cl)c1)C1COCc2[nH]c(=O)c3cc(F)c(F)cc3c21 (single isomer, unassigned) [Compound 140, 3-(3-Chloro-4-fluorophenyl)-1-(8,9-difluoro-6-oxo-1,4,5,6-tetrahydro-2H-pyrano[3,4-c]isoquinolin-1-yl)-1-(2-(methylsulfonyl)ethyl)urea] | 0.01 | 
14 | [2H]C([2H])([2H])N(C(=O)Nc1ccc(F)c(Cl)c1)[C@]1([2H])COCc2[nH]c(=O)c3cc(F)c(F)cc3c21 (single isomer, unassigned) [Compound 146] |  | EC50 (Hepatitis B virus, HepDE19, 168 h, read-out: DE-19bDNA EC50 (uM), inhibition of rcDNA formation in HepDE19 cells (HepG2 derived), Tet-free medium, 7 day incubation, Quantigene 2.0 bDNA readout, top concentration 25 μM): 0.01 µM
15 | CN(C(=O)Nc1ccc(F)c(Cl)c1)C1CNCc2[nH]c(=O)c3cc(F)c(F)cc3c21 (single isomer, unassigned) [Compound 149, 3-(3-Chloro-4-fluorophenyl)-1-(8,9-difluoro-6-oxo-1,2,3,4,5,6-hexahydrobenzo[c][1,7]naphthyridin-1-yl)-1-methylurea] | 0.25 | 
16 | CN(C(=O)Nc1ccc(F)c(Cl)c1)C1CNCc2[nH]c(=O)c3cc(F)c(F)cc3c21 (single isomer, unassigned) [Compound 150, 3-(3-Chloro-4-fluorophenyl)-1-(8,9-difluoro-6-oxo-1,2,3,4,5,6-hexahydrobenzo[c][1,7]naphthyridin-1-yl)-1-methylurea] | 0.01 | 
17 | CN(C(=O)Nc1ccc(F)c(Cl)c1)C1CNCc2[nH]c(=O)c3cc(F)ccc3c21 (single isomer, unassigned) [Compound 153, 3-(3-Chloro-4-fluorophenyl)-1-(8-fluoro-6-oxo-1,2,3,4,5,6-hexahydrobenzo[c][1,7]naphthyridin-1-yl)-1-methylurea] | 0.73 | 
18 | CN(C(=O)Nc1ccc(F)c(Cl)c1)C1CNCc2[nH]c(=O)c3cc(F)ccc3c21 (single isomer, unassigned) [Compound 154, 3-(3-Chloro-4-fluorophenyl)-1-(8-fluoro-6-oxo-1,2,3,4,5,6-hexahydrobenzo[c][1,7]naphthyridin-1-yl)-1-methylurea] | 0.03 | 
19 | CN1Cc2[nH]c(=O)c3cc(F)ccc3c2C(N(C)C(=O)Nc2ccc(F)c(Cl)c2)C1 (single isomer, unassigned) [Compound 155, 3-(3-Chloro-4-fluorophenyl)-1-(8-fluoro-3-methyl-6-oxo-1,2,3,4,5,6-hexahydrobenzo[c][1,7]naphthyridin-1-yl)-1-methylurea] | 9.2 | 
20 | CN1Cc2[nH]c(=O)c3cc(F)ccc3c2C(N(C)C(=O)Nc2ccc(F)c(Cl)c2)C1 (single isomer, unassigned) [Compound 156, 3-(3-Chloro-4-fluorophenyl)-1-(8-fluoro-3-methyl-6-oxo-1,2,3,4,5,6-hexahydrobenzo[c][1,7]naphthyridin-1-yl)-1-methylurea] | 0.42 | 
21 | CC(=O)N1Cc2[nH]c(=O)c3cc(F)ccc3c2C(N(C)C(=O)Nc2ccc(F)c(Cl)c2)C1 (single isomer, unassigned) [Compound 157, 1-(3-Acetyl-8-fluoro-6-oxo-1,2,3,4,5,6-hexahydrobenzo[c][1,7]naphthyridin-1-yl)-3-(3-chloro-4-fluorophenyl)-1-methylurea] |  | EC50 [1]: 1.2 µM
22 | CC(=O)N1Cc2[nH]c(=O)c3cc(F)ccc3c2C(N(C)C(=O)Nc2ccc(F)c(Cl)c2)C1 (single isomer, unassigned) [Compound 158, 1-(3-Acetyl-8-fluoro-6-oxo-1,2,3,4,5,6-hexahydrobenzo[c][1,7]naphthyridin-1-yl)-3-(3-chloro-4-fluorophenyl)-1-methylurea] | 2.3 | 
23 | CC(=O)N1Cc2[nH]c(=O)c3cc(F)c(F)cc3c2C(N(C)C(=O)Nc2ccc(F)c(Cl)c2)C1 (single isomer, unassigned) [Compound 159, 1-(3-Acetyl-8,9-difluoro-6-oxo-1,2,3,4,5,6-hexahydrobenzo[c][1,7]naphthyridin-1-yl)-3-(3-chloro-4-fluorophenyl)-1-methylurea] | 12 | 
24 | CC(=O)N1Cc2[nH]c(=O)c3cc(F)c(F)cc3c2C(N(C)C(=O)Nc2ccc(F)c(Cl)c2)C1 (single isomer, unassigned) [Compound 160, 1-(3-Acetyl-8,9-difluoro-6-oxo-1,2,3,4,5,6-hexahydrobenzo[c][1,7]naphthyridin-1-yl)-3-(3-chloro-4-fluorophenyl)-1-methylurea] | 0.82 | 
25 | CN(C(=O)Nc1ccc(F)c(C#N)c1)C1CNCc2[nH]c(=O)c3cc(F)ccc3c21 (single isomer, unassigned) [Compound 161, 3-(3-Cyano-4-fluorophenyl)-1-(8-fluoro-6-oxo-1,2,3,4,5,6-hexahydrobenzo[c][1,7]naphthyridin-1-yl)-1-methylurea] | 17 | 
26 | CN(C(=O)Nc1ccc(F)c(C#N)c1)C1CNCc2[nH]c(=O)c3cc(F)ccc3c21 (single isomer, unassigned) [Compound 162, 3-(3-Cyano-4-fluorophenyl)-1-(8-fluoro-6-oxo-1,2,3,4,5,6-hexahydrobenzo[c][1,7]naphthyridin-1-yl)-1-methylurea] | 0.17 | 
27 | CN1Cc2[nH]c(=O)c3cc(F)ccc3c2C(N(C)C(=O)Nc2ccc(F)c(C#N)c2)C1 (single isomer, unassigned) [Compound 163, 3-(3-Cyano-4-fluorophenyl)-1-(8-fluoro-3-methyl-6-oxo-1,2,3,4,5,6-hexahydrobenzo[c][1,7]naphthyridin-1-yl)-1-methylurea] | 23 | 
28 | CN1Cc2[nH]c(=O)c3cc(F)ccc3c2C(N(C)C(=O)Nc2ccc(F)c(C#N)c2)C1 (single isomer, unassigned) [Compound 164, 3-(3-Cyano-4-fluorophenyl)-1-(8-fluoro-3-methyl-6-oxo-1,2,3,4,5,6-hexahydrobenzo[c][1,7]naphthyridin-1-yl)-1-methylurea] | 1.3 | 

From patent US20230108906A1, “SUBSTITUTED BICYCLIC AND TRICYCLIC UREAS AND AMIDES, ANALOGUES THEREOF, AND METHODS USING SAME” (Arbutus Biopharma Corporation, priority 2019, published 2023)
